This is an account of results in patent EP4803523A1, “FUSED HETEROARYL COMPOUND, PREPARATION METHOD THEREFOR, AND USE THEREOF IN MEDICINE” (Jiangsu Hengrui Pharmaceuticals Co., Ltd., priority 2023, dated 2025).

Data set [1] relates to SW620. Description: 3D cell proliferation inhibition assay (CellTiter-Glo 3D). In kind it is cell-based. To be noted: Homo sapiens, SW-620, 120 h; SW620 cells, KRAS G12V, 3D culture, 5 days with compound. On the procedure:
(§1) This experiment uses the cells listed in the table below to evaluate the inhibitory effects of the compounds on the proliferation of KRAS mutant or KRAS amplified cells.
(§2) On the first day of the experiment, cells that were growing well and had reached 70%-80% confluence were digested, resuspended in culture medium, and the cell density was adjusted to the desired level. In a U-shaped low-attachment 96-well plate (Corning, 7007), 90 µL of cell suspension was added per well, with the cell density as shown in the table above. The cell plate was centrifuged at 2500 rpm for 5 minutes and then placed in an incubator for 24 hours of culture. On the second day, the 20 mM test compound dissolved in DMSO was diluted with DMSO to the first concentration of 2 or 0.2 mM, and then serially diluted in a 5-fold gradient to obtain 9 concentration points, with the control well containing DMSO. The serially diluted compound was then further diluted 20-fold with culture medium. 10 µL of the test compound diluted in culture medium was added to each well of the cell plate. The final concentrations of the compound were 9 points in a 5-fold serial dilution starting from 10 or 1 µM. Cell wells containing 0.5% DMSO were set as vehicle control wells, and wells containing only culture medium and 0.5% DMSO were set as blank control wells. The cell plate was centrifuged at 2000 rpm for 3 minutes and then placed in an incubator for 5 days of culture. On the seventh day, the 96-well cell culture plate was taken out, and 50 µL of the luminescent cell viability detection reagent, CellTiter-Glo® 3D Cell Viability Assay (Promega, G9683), was added to each well. After shaking at room temperature for 25 minutes, the mixture was pipetted up and down to mix, and 100 µL was transferred from each well to a white, opaque-bottom OptiPlate™-96 well plate (PerkinElmer, 6005290). The luminescence signal value was read using a multimode microplate reader (PerkinElmer, EnVision2105).
(§3) The inhibition rate was calculated using the following formula: Inhibition rate = (Luminescence value vehicle control well - Luminescence value test compound)/(Luminescence value vehicle control well - Luminescence value blank control well) × 100%. The IC50 values of the compound inhibitory activity were calculated using Graphpad Prism software. Table 1. Data of inhibitory activity on 3D cell proliferation (unit: nM)
Background: ATP-based viability assays read luminescence as a measure of living cells.

For data set [2], the system named is AGS. The description is as above. The class given is cell-based. To be noted: Homo sapiens, 120 h; AGS cells, KRAS G12D, 3D culture, 5 days with compound. The method, then: as §1, §2, §3
Data set [3] relates to GP2d. The data set is described as above. The class given is cell-based. To be noted: GP2d, 120 h, GP2d cells, KRAS G12D, 3D culture, 5 days with compound. The method, then:
as §1, §2, §3

For data set [4], the system named is AsPC-1. The description is as above. In kind it is cell-based. The note with it: Homo sapiens, ASPC1, 120 h; AsPC-1 cells, KRAS G12D, 3D culture, 5 days with compound. The method, then:
as §1, §2, §3

Data set [5] concerns H358. The data set is described as above. In kind it is cell-based. To be noted: Homo sapiens, NCI-H358, 120 h; H358 cells, KRAS G12C, 3D culture, 5 days with compound. The method, then:
as §1, §2, §3

Data set [6] has as its system MKN1. The description is as above. In kind it is cell-based. The note with it: Homo sapiens, MKN-1, 120 h; MKN1 cells, KRAS Amp, 3D culture, 5 days with compound. On the procedure:
as §1, §2, §3

Data set [7] in a line: in vivo. To be noted: both, SD, rat, plasma, po.
Method: Using SD rats as the test animals, the plasma concentrations of the example compounds at different time points were determined by LC-MS/MS following oral gavage (i.g.) administration. The pharmacokinetic behaviours of the compounds of the present disclosure in rats were investigated, and their pharmacokinetic profiles were evaluated.
Blood samples (0.2 mL) were collected from the orbit before administration and at 0.25, 0.5, 1.0, 2.0, 4.0, 6.0, 8.0, 11.0, and 24.0 hours after administration. The samples were placed in EDTA-K2 anticoagulant tubes, centrifuged at 10,000 rpm for 2 minute (4°C), and the plasma was separated within 1 hour and stored at -20°C or -80°C until analysis. The entire process from blood collection to centrifugation was performed in ice bath conditions.
The mixture was vortexed and then centrifuged at 4000 rpm for 15 minutes; the supernatant was taken for LC-MS/MS analysis. […] The mixture was vortexed and then centrifuged at 3700 rpm for 10 minutes; the supernatant was taken for LC-MS/MS analysis.
The mixture was vortexed and then centrifuged at 4000 rpm for 15 minutes; the supernatant was taken for LC-MS/MS analysis. […] The mixture was vortexed and then centrifuged at 4000 rpm for 15 minutes; the supernatant was taken for LC-MS/MS analysis.
Data set [8] in a line: Pharmacokinetic evaluation, mouse experiment (oral gavage, plasma LC-MS/MS). The class given is in vivo. To be noted: balb/c nude mice, female, oral gavage (i.g.), 20.0 mg/kg. The method, then: Using balb/c nude mice as the test animals, the plasma concentrations of the example compounds at different time points were determined by LC-MS/MS following oral gavage (i.g.) administration. The pharmacokinetic behaviours of the compounds of the present disclosure in mice were investigated, and their pharmacokinetic profiles were evaluated.
Nine balb/c nude mice, female, were provided by Beijing Vital River Laboratory Animal Technology Co., Ltd. (Production License Number: SCXK(Zhejiang) 2024-0001).
A given amount of the test compound was weighed and formulated with 5% DMF + 45% PG + 50% (10% HS15-pH7.4 buffer) to prepare a 2.0 mg/mL clear and colourless solution.
The administration dose was 20.0 mg/kg, and the administration volume was 10 mL/kg.
Blood samples (0.1 ml) were collected from the orbit before administration and at 0.25, 0.5, 1.0, 2.0, 4.0, 6.0, 8.0, 11.0, and 24.0 hours after administration. The samples were placed in EDTA-K2 anticoagulant tubes, centrifuged at 10,000 rpm for 1 minute (4°C), and the plasma was separated within 1 hour and stored at -20°C or -80°C until analysis. The entire process from blood collection to centrifugation was performed in ice bath conditions. Food was provided 2 hours after administration.
The concentration of the test compound in mouse plasma after administration was determined as follows: 20 µL of the plasma sample collected at each time point after administration was taken, and 200 µL of internal standard acetonitrile solution (containing 20 ng/mL verapamil) was added. The mixture was vortexed and then centrifuged at 4000 rpm for 15 minutes; the supernatant was taken for LC-MS/MS analysis.

With `N#Cc1c(N)sc2c(F)ccc(-c3c4c(c5cnc(OCC67CCCN6CC(=C(F)F)C7)nc5c3F)COC4)c12` (single isomer, unassigned) [Example 44A], the IC50 (as a rule, the concentration that inhibits the measured activity by half) in data set [1] stood at 3.4 nM; in data set [2] it was 5.03 nM; in data set [3], 2.59 nM; in data set [4] it was 8.36 nM; in data set [5], 2.78 nM; in data set [6] it was 1.3 nM.

Turning to `C[C@@H](O)CN1CC2CCC(C1)N2c1nc(OCC2(CN3CCC(=C(F)F)CC3)CC2)nc2c(F)c(-c3ncc(F)c4sc(N)c(C#N)c34)c3c(c12)COC3` [Example 2, 2-amino-4-(3-((1-((4-(difluoromethylene)piperidin-1-yl)methyl)cyclopropyl)methoxy)-5-fluoro-1-(3-((R)-2-hydroxypropyl)-3,8-diazabicyclo[3.2.1]oct-8-yl)-7,9-dihydrofuro[3,4-f]quinazolin-6-yl)-7-fluorothieno[3,2-c]pyridine-3-carbonitrile], the AUC(0-t) in data set [7] (20 mg/kg) was 5170 ng·h/mL; in data set [7] (40 mg/kg), 17600 ng·h/mL; in data set [8] (read-out: Area under the curve AUC0-t), 9100 ng·h/mL. Also, the CL/F was determined as 65.5 mL/min/kg in data set [7] (20 mg/kg), 36.7 mL/min/kg in data set [7] (40 mg/kg) and 36.5 mL/min/kg in data set [8] (read-out: Clearance CL/F). For the same compound, the values for the Cmax in data set [7] (20 mg/kg), in data set [7] (40 mg/kg) and in data set [8] (read-out: Plasma concentration Cmax) were 377 ng/mL, 1170 ng/mL and 1060 ng/mL, respectively. Moreover, the Vd/F in data set [7] (20 mg/kg) was determined as 28 L/kg; in data set [7] (40 mg/kg), 19.6 L/kg; in data set [8] (read-out: Apparent volume of distribution Vz/F), 9.07 L/kg. For the same compound, the half-life is 5.52 h in data set [7] (20 mg/kg), 6.7 h in data set [7] (40 mg/kg) and 2.87 h in data set [8] (read-out: Half life T1/2 (converted)). Besides, the 50% inhibitory concentration (IC50) in data set [2] was found to be 2.36 nM; in data set [3] it was 1.79 nM; in data set [4], 6.18 nM.

Take `N#Cc1c(N)sc2c(F)ccc(-c3c4c(c5cnc(OCC67CCCN6CC(=CF)C7)nc5c3F)COC4)c12` (stereo not shown) [Example 15, 2-Amino-7-fluoro-4-(5-fluoro-3-((2-(fluoromethylene)tetrahydro-1H-pyrrolizin-7a(5H)-yl)methoxy)-7,9-dihydrofuro[3,4-f]quinazolin-6-yl)benzo[b]thiophene-3-carbonitrile]: the IC50 turned out to be 7.9 nM in data set [1]; 9.12 nM in data set [2]; 1.71 nM in data set [3]; 14.7 nM in data set [4]; 6.9 nM in data set [6].

Turning to `N#Cc1c(N)sc2c(F)ccc(-c3c4c(c5cnc(OCC67CCCN6CC(=C(F)F)C7)nc5c3F)COC4)c12` (stereo not shown) [Example 27, 2-Amino-4-(3-((2-(difluoromethylene)tetrahydro-1H-pyrrolizin-7a(5H)-yl)methoxy)-5-fluoro-7,9-dihydrofuro[3,4-f]quinazolin-6-yl)-7-fluorobenzo[b]thiophene-3-carbonitrile], the half-maximal inhibitory concentration (IC50) in data set [1] amounted to 12.4 nM; in data set [3] it was 6.61 nM; in data set [5], 8.85 nM; in data set [6], 8.2 nM.

On to `N#Cc1c(N)sc2c(F)ccc(-c3c4c(c5c(C6CC6)nc(OC[C@@]67CCCN6C[C@H](F)C7)nc5c3F)COC4)c12` [Example 36, 2-Amino-4-(1-cyclopropyl-5-fluoro-3-(((2R,7aS)-2-fluorotetrahydro-1H-pyrrolizin-7a(5H)-yl)methoxy)-7,9-dihydrofuro[3,4-f]quinazolin-6-yl)-7-fluorobenzo[b]thiophene-3-carbonitrile], for which the figures for the 50% inhibitory concentration (IC50) in data set [1] and in data set [5] were 10.1 nM and 8.04 nM, respectively.

For `N#Cc1c(N)sc2c(F)ccc(-c3c4c(c5cnc(OCC6(CN7CCC(=CF)CC7)CC6)nc5c3Cl)COC4)c12` [Example 39, 2-Amino-4-(5-chloro-3-((1-((4-(fluoromethylene)piperidin-1-yl)methyl)cyclopropyl)methoxy)-7,9-dihydrofuro[3,4-f]quinazolin-6-yl)-7-fluorobenzo[b]thiophene-3-carbonitrile], the IC50 is 12.7 nM in data set [1]; 4.07 nM in data set [2]; 2.95 nM in data set [3]; 7.65 nM in data set [4]; 4.76 nM in data set [5]; 4 nM in data set [6].

Turning to `C=CC(=O)N1CC2CCC(C1)N2c1nc(OCC2(CN3CCC(=C(F)F)CC3)CC2)nc2c(F)c(-c3ncc(F)c4sc(N)c(C#N)c34)c3c(c12)COC3` [Example 55], in data set [5], the concentration for half-maximal inhibition (IC50) was 0.63 nM.

Turning to `C=CC(=O)N1C[C@H](C)N(c2nc(OCC3(CN4CCC(=C(F)F)CC4)CC3)nc3c(F)c(-c4ncc(F)c5sc(N)c(C#N)c45)c4c(c23)COC4)C[C@H]1C` [Example 56], the IC50 in data set [5] was 6.76 nM.
